Data published in patent US10004753B2, “Methods for treating tauopathy” (The J. David Gladstone Institutes, priority 2015, dated 2018).

How the values were obtained:
[1] = test system: primary neurons, K174Q tau; test: Tau-lowering effect of salicylate on K174Q mutant tau in primary neurons; type: cell-based; settings: K174 mutated to glutamine
[2] = test system: HEK293 cells overexpressing hTau (WT) and p300; test: Ac-tau and p-tau Western blot in HEK293 cells treated with salicylate; type: cell-based, human; settings: 0, 5, 10 mM salicylate for 24 hr
Method: To examine the effects of salicylate treatment on tau acetylation and phosphorylation, HEK293 cells overexpressing hTau (WT) and p300 were treated with sodium salicylate (SS).
FIGS. 1A-1D. Salicylate inhibits p300 and reduces ac-tau and p-tau in vitro (FIG. 1A) HEK293 cells overexpressing wild-type human tau were treated with 0, 5, 10 mM salicylate for 24 hr. Representative Western blot of four experiments. (FIG. 1B) Quantification of ac-tau and p-tau levels in HEK293 cells treated with salicylate. ac-tau/t-tau, p-tau/t-tau in non-treated cells were set as 1. n=4. **, p<0.01, ***, p<0.001 (two-tails unpaired t-test). Error bar, S.E.M. (FIG. 1C) Rat primary cortical neurons infected with lenti-hTau (WT) were treated with 0, 5, or 10 mM salicylate for 24 hr. Representative Western blot of four experiments. (FIG. 1D) Quantification of ac-tau, p-tau and p300 levels in primary neurons treated with salicylate. ac-tau/t-tau, p-tau/t-tau and p300/GAPDH in non-treated cells were set as 1. n=4. *, p<0.05, **, p<0.01, ***, p<0.001 (two-tails unpaired t-test). Error bar, S.E.M.

p300 = p300 (Homo sapiens, UniProt Q09472); settings: recently identified; cited from earlier work
Sequence of p300 (Q09472 whole entry, species assumed): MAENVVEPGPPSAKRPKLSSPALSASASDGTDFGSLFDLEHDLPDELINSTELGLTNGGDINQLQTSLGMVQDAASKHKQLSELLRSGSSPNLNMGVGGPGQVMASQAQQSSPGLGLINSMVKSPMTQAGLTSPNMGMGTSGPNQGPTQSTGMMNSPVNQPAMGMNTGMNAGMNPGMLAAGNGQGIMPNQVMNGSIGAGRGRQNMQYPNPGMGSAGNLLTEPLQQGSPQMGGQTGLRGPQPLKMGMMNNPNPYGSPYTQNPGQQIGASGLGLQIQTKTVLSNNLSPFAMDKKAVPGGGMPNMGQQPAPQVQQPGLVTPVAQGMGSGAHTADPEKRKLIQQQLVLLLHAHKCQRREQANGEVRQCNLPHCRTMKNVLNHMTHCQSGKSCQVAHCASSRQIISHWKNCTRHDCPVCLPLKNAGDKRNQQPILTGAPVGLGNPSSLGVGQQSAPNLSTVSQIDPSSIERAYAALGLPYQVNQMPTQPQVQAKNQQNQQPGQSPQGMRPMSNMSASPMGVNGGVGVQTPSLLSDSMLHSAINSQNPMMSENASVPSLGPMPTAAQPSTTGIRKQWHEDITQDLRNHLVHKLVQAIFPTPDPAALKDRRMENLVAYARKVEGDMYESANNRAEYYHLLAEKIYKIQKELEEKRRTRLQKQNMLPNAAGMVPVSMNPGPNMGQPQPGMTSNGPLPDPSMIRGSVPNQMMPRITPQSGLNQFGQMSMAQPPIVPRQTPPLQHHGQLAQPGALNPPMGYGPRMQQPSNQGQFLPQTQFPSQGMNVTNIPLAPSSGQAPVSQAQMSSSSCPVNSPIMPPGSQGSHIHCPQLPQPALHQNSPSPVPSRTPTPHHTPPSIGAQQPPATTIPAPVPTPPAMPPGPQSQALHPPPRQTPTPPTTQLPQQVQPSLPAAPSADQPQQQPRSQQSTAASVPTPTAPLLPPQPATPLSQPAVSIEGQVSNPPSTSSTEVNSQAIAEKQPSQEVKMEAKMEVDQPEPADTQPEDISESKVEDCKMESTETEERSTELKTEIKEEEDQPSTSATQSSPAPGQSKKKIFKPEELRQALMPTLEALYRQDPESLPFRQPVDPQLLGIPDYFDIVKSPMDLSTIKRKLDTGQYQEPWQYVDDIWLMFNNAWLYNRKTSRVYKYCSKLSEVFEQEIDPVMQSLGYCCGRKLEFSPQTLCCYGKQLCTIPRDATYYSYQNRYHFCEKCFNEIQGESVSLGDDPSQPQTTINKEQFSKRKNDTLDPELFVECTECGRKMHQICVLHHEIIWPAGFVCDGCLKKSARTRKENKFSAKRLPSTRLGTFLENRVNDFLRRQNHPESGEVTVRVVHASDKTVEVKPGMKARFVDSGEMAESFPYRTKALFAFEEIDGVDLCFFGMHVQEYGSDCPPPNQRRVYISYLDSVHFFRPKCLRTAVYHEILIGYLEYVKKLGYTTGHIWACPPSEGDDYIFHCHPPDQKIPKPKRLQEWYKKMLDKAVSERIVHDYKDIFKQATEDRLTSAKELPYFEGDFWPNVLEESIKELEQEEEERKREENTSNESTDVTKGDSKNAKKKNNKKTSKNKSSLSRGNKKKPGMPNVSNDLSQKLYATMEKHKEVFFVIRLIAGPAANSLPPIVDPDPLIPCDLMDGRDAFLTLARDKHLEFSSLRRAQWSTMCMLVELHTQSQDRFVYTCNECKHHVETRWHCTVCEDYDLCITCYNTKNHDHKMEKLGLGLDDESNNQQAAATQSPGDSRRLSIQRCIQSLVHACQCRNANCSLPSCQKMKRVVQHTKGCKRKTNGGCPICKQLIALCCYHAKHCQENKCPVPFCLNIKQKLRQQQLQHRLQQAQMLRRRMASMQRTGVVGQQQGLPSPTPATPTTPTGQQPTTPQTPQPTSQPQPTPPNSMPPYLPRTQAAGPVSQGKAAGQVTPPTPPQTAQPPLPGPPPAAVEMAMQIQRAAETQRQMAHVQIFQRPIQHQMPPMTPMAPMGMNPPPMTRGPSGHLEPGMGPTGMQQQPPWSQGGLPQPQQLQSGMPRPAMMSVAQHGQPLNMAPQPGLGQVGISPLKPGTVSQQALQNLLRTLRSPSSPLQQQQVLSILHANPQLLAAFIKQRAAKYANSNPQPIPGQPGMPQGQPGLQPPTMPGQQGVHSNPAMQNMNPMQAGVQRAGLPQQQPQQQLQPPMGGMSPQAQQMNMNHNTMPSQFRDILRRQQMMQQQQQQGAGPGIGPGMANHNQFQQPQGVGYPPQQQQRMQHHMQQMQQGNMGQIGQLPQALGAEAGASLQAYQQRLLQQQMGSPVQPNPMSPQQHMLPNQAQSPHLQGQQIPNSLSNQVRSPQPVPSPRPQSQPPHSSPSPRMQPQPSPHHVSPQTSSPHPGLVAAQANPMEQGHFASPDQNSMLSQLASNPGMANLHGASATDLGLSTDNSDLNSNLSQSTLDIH

PS19 mice [3] = test: Fixed Location Dry Maze; type: in vivo, mouse; settings: 225 mg/kg oral gavage for 8 weeks; 7-8 month old PS19 mice
Method: For SSA treatment experiments, only female PS19 mice obtained from Jackson Laboratory were used. The mice were housed in a conventional facility at Stanford University (Palo Alto, Calif.<USA) with a 12-h light/dark reverse cycle and ad libitum access to food and water. All behavior experiments of PS19 mice were performed during daylight hours and carried out under Stanford University School of Medicine, Institutional Animal Care and Use Committee-approved guidelines.
The Fixed Location Dry Maze is also called DMP dry maze (Faizi, M., et al. Brain Behav 2, 142-154 (2012)). Experiments were performed at an animal facility at Stanford University (Palo Alto, Calif.). Mice were housed at a standard temperature (22±1° C.), in a reverse light-controlled environment (lights off from 8:30 am to 8:30 pm) with ad libitum access to food and water. Animals are group-housed with minimal enrichment such as shelter (paper towel tubes and nestlets). The experimenter remained blinded to the experimental groups throughout the entire study. […] The subjects were monitored by a video tracking system directly above maze, and the parameters were measured using the computer software Ethovision. […] Time in each quadrant was recorded and memory was assessed by the time spent in the target quadrant versus the other three quadrants. […]

PS19 mice [4] = test: Hippocampal volume and NeuN-positive cell number; type: in vivo, mouse; settings: 10 months old PS19 mice vs wild-type littermates
Description: The neurodegeneration phenotype of PS19 mice was examined by measuring hippocampal volume and NeuN-positive cell number. […] (FIG. 4A) 10 months old PS19 mice have significant hippocampal volume loss compared to wild-type, which is absent in SSA-treated group. Left. Representative nissl staining of hippocampus from vehicle-treated WT, vehicle-treated PS19 and SSA-treated PS19 mice. ***, p<0.001, *, p<0.05 (two-tails unpaired t-test). Error bar, S.E.M. Scale bar, 500 um. (FIG. 4B) 10 months old PS19 mice have significant reduction of NeuN-positive cells compared to wild-type, which is absent in SSA-treated group. Left. Representative NeuN staining of hippocampus from vehicle-treated WT, vehicle-treated PS19 and SSA-treated PS19 mice. **, p<0.01 (two-tails unpaired t-test). Error bar, S.E.M. (FIG. 4C) NeuN number positively correlates with time spent in target quadrant in dry maze. p=0.0142 (linear regression).

[5] = PK analyses of salsalate (SSA) and salicylic acid (SA) in brain and plasma; type: in vivo, C57B6 mice; settings: oral gavage, single bolus dose, mice
Method: SSA was administered to C57B6 mice via oral gavage as a single bolus dose. Mice were sacrificed at predetermined time points and plasma and brain tissue samples were harvested for analysis by PPL labs (Redwood City, Calif., USA). SSA and its metabolite SA were measured simultaneously using oxopropanoyloxy benzoic acid as an internal standard solution. To extract SSA/SA from brain, 200 μl of 50% Acetonitrile in 0.1% formic acid was added to 30-50 mg of cortical tissue, followed by homogenization and vortexing. After addition of 200 μl of the internal standard solution, the samples were centrifuged and the supernatants were transferred for injection. To measure SSA/SA in the plasma, 10 μl of plasma samples were mixed with 90 μl H2O and 100 μl of Internal Standard Solution, followed by centrifugation and injection. HPLC was performed using a C18 column following a gradient program (10% to 90% acetonitrile over a period of 6 min) with a flow rate of 0.4 ml/min. The injection volume was ˜5 μl. Mass spectrometry analyses were performed on 3200 Q TRAP system (AB SCIEX, Framingham, Mass. USA.) using an MQL algorithm.

PS19 mice [6] = test: Western blot of ac-tau, p-tau, t-tau, p300 and ac-H2A in hippocampal/brain lysate; type: in vivo, mouse
Description: The levels of ac-tau and phospho-tau in the hippocampal lysate of PS19 mice were examined (FIG. 5A).
Salsalate treatment in PS19 mice inhibits p300 activity and reduces tau acetylation. (FIG. 5A) Representative Western blot showing levels of ac-tau, p-tau, t-tau and GAPDH in brain lysate of PS19 mice treated with salsalate (SSA) or vehicle (veh). Wild-type (WT) littermates treated with vehicle and tau knockout (KO) mice were included as controls. (FIG. 5B) Quantification of ac-tau and p-tau levels in brain lysate of PS19 mice treated with vehicle or salsalate. ac-tau/t-tau and p-tau/t-tau in vehicle-treated group were set as 1. n=8. **, p<0.01 (two-tails unpaired t-test). Error bar, S.E.M. (FIG. 5C) Representative Western blot showing levels of p300, ac-H2A(K5), H2A and GAPDH in brain lysate of PS19 mice treated with salsalate (SSA) or vehicle (veh). (FIG. 5D) Quantification of p300 and ac-H2A levels in brain lysate of PS19 mice treated with vehicle or salsalate. p300/GAPDH and ac-H2A/H2A in vehicle-treated group were set as 1. n=8. *, p<0.05 (two-tails unpaired t-test). Error bar, S.E.M.

PS19 mice [7] = test: NFT analysis by Gallyas silver staining; type: in vivo, mouse; settings: female and male cohorts, age 10-11 months
Description: FIGS. 12A and 12B provide silver staining results in neurites from neocortex and hippocampal regions for mice treated with SSA. Analysis of NFTs by Gallyas silver staining (FIG. 12A) and quantification of silver-positive cells in neurites from neocortex and hippocampal regions CA1 and CA3 (FIG. 12B) in vehicle-treated NTG mice and PS19 mice treated with vehicle or SSA. Scale bar, 250 μm (c, top); 25 μm (c, middle and bottom); n=8 mice (age 10-11 months) per genotype per treatment; *P<0.05, unpaired Student's t-test. Values are mean±s.e.m.
Prominent NFTs and dystrophic neurites, positive for Gallyas silver staining, were detected throughout the forebrains in PS19 mice (FIG. 12A).

AAV-K174Q-injected mice = test: SSA treatment of AAV-K174Q-injected mice; type: in vivo, mouse
Description: FIG. 8 provides (Left) an immunoblot analysis of ac-H2AK5, H2A, p-tau (AT8 and PHF-1), t-tau (HT7) and GAPDH in mice infected with AAV-K174Q and treated with SSA or vehicle; and (Right) a graph depicting the results of a quantification of ac-H2AK5 and H2A. n=11 (vehicle) or 10 (SSA) mice; *P<0.05, unpaired Student's t-test; values are mean±s.e.m.
ELISA analysis of K174Q tau after SSA treatment. n=11 (vehicle) or 10 (SSA) mice; ns, not significant; P=0.3647; unpaired Student's t-test; values are mean±s.e.m.
FIG. 10 provides graphs showing that levels of PHF1-positive p-tau relative to t-tau, or AT8-positive p-tau normalized by t-tau or GAPDH, were not affected by SSA treatment. Levels of PHF-1-positive p-tau normalized to HT7 (left) or AT8-positive p-tau normalized to HT7 (middle) or GAPDH (right) after SSA treatment. n=11 (vehicle) or 10 (SSA) mice; ns, not significant, unpaired Student's t-test. Values are mean±s.e.m.
Nissl staining (left) and hippocampal volume (right) in mice expressing K174Q tau after SSA treatment. Scale bars, 500 μm; n=11 (vehicle) or 10 (SSA) mice; ns, not significant, unpaired Student's t-test. Values are mean±s.e.m.
For AAV-Tau (adeno-associated virus encoding Tau) injection experiments, only male mice were purchased from Jackson Laboratory with the same age and genetic background (C57BL/6) and used for all the experiments. The mice were housed in a pathogen-free barrier facility at UCSF with a 12-h light/dark cycle and ad libitum access to food and water. All behavior experiments were performed during daylight hours. All animal procedures were carried out under University of California, San Francisco, Institutional Animal Care and Use Committee-approved guidelines.
To determine if SSA's beneficial effects involve inhibition of ac-K174 in vivo. Two-month after injecting with AAV-K174Q, mice were treated with SSA daily as previously performed in PS19 mice. Ac-H2AK5 levels were reduced in the SSA-treated group, confirming inhibition of p300 by SSA (FIG. 8). […] Levels of PHF1-positive p-tau relative to t-tau, or AT8-positive p-tau normalized by t-tau or GAPDH, were also not affected by SSA treatment (FIG. 10).

[8] = brain lysate of PS19 mice, vs vehicle
[9] = hippocampal lysate of PS19 mice, vs vehicle-treated group
[10] = AAV-K174Q-injected mice, vs vehicle

| Compound | Tau-lowering effect with K174Q mutation [1] | AT8-positive phospho-tau level (p-tau/t-tau) [2] | Ac-tau level (ac-tau/t-tau) [2] | p300 inhibition (p300) | Memory retention in probe trial (time in target vs non-target quadrant) (PS19 mice [3]) | Spatial learning (learning curve) (PS19 mice [3]) | Hippocampal volume (PS19 mice [4]) | Number of NeuN-positive cells in hippocampal section (PS19 mice [4]) | Brain penetration [5] | t-tau levels in PS19 mice (PS19 mice [6]; PS19 mice) | p300 HAT activity as measured by levels of histone acetylation (ac-H2A/H2A) (PS19 mice [6]; [8]) | p300 levels (p300/GAPDH) (PS19 mice [6]; [8]) | AT-8 positive phospho-tau levels (p-tau/t-tau) (PS19 mice [6]; [9]) | ac-tau levels (ac-tau/t-tau) (PS19 mice [6]; [9]) | Number of Gallyas silver-positive neurons and neurites in cortex and hippocampus (PS19 mice [7]) | Ac-H2AK5 levels (AAV-K174Q-injected mice; AAV-K174Q-injected mice, SSA daily, vs vehicle) | AT8-positive p-tau normalized by t-tau or GAPDH (AAV-K174Q-injected mice; [10]) | Hippocampal atrophy (hippocampal volume) (AAV-K174Q-injected mice; [10]) | PHF1-positive p-tau relative to t-tau (AAV-K174Q-injected mice; [10]) | Levels of t-tau (ELISA) (AAV-K174Q-injected mice; K174Q injected mice, vs vehicle treated controls) |
| --- | --- | --- | --- | --- | --- | --- | --- | --- | --- | --- | --- | --- | --- | --- | --- | --- | --- | --- | --- | --- |
| O=C(O)c1ccccc1O [salicylate, Salicylic acid] | abolished the tau-lowering effects | reduced | significantly reduced by salicylate in a dose-dependent manner | p300 inhibitor | – | – | – | – | – | – | – | – | – | – | – | – | – | – | – | – |
| O=C(Oc1ccccc1C(=O)O)c1ccccc1O [salsalate] | – | – | – | – | significantly rescued the deficit | did not rescue the learning deficit | did not show any hippocampal volume loss | did not show any significant difference compared to wild-type | readily penetrates into the brain | tau-lowering effects | significant reduction of p300 HAT activity | trend of reduction in p300 levels | trend of reduction in AT-8 positive phospho-tau levels, although the difference was not significant | significantly lower ac-tau levels | reduced the number of Gallyas silver-positive neurons and neurites | reduced | not affected | failed to prevent/reduce hippocampal atrophy | not affected | failed to reduce levels of t-tau |
